Assay results reported in patent publication US12428626B2 (priority 2018, dated 2025).
Residues, ends and D or L forms follow the SMILES beside them. *: point of attachment. Cbz = O=C(OCc1ccccc1)*

Test system: WT MYXV
Assay type: cell-based, myxoma virus

CC(C)C[C@@H](C=O)NC(=O)[C@H](CC(C)C)NC(=O)[C@H](CC(C)C)NC(=O)OCc1ccccc1 [MG132, Z-Leu-Leu-Leu-al] (Cbz-Leu-Leu-Leu-aldehyde)
improved infection in SAMD9-null cells: did not affect improved infection

Actinomycin D
elevated luciferase activity resulting from infecting SAMD9-null cells: did not eliminate the elevated luciferase activity
overall luciferase activity compared with untreated corresponding infection: did reduce the overall luciferase activity

cytosine beta-D-arabinofuranoside [Cytosine arabinoside]
luciferase activity emitted from infection in both cell lines: did not affect luciferase activity
